Assay results from patent publication US10005767B2, “Compositions and methods for inhibition of the JAK pathway” (Rigel Pharmaceuticals, Inc., priority 2009, dated 2018).

tested on: human primary T-cells, IL-2 stimulated proliferation (JAK-1 and JAK-3 dependent; reported as JAK3 activity); assay: Human primary T-cell proliferation stimulated by IL-2 (Example 3); type: cell-based; conditions: Homo sapiens, T-cell, tested under conditions described in Example 3 (IL-2 stimulated human primary T-cell proliferation); read-out: ability to inhibit JAK3 activity, IC50 range (Table V)
Summary of the method: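 Peripheral-blood human T-cells pre-activated via TCR/CD28, IL-2-starved overnight, then cultured 72 h at 37 °C with compound in Yssel's medium containing IL-2 (80 U/mL in cell suspension). Proliferation read as viable-cell ATP by CellTiter-Glo luminescence; reduction versus control taken as JAK pathway inhibition.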

How did the IC50 turn out when `O=c1[nH]c2cc(Nc3nc(Nc4ccc(N5C[C@@H]6C[C@H]5CO6)nc4)ncc3F)ccc2o1` [II-34, N4-(benzoxazolin-2-on-5-yl)-N2-[2-((1S,4S)-2-oxa-5-azabicyclo[2.2.1]heptan-5-yl)pyridin-5-yl]-5-fluoropyrimidine-2,4-diamine] was run?
The IC50 was < 500 nM.

Which IC50 does the source give for `Cc1cnc(Nc2ccc(NC3CCN(C)CC3)nc2)nc1Nc1ccc2oc(=O)[nH]c2c1` [II-35, N4-(benzo[d]oxazol-2(3H)-on-5-yl)-N2-[2-(1-methylpiperidin-4-yl)aminopyridin-5-yl]-5-methylpyrimidine-2,4-diamine] here?
The IC50 was < 500 nM.

`Cc1cnc(Nc2ccc(NC3CC4CCC(C3)N4C)nc2)nc1Nc1ccc2oc(=O)[nH]c2c1` (stereo not drawn) [II-37, N4-(benzo[d]oxazol-2(3H)-on-5-yl)-N2-[2-(8-methyl-8-aza-bicyclo[3.2.1]oct-3-yl)aminopyridin-5-yl]-5-methylpyrimidine-2,4-diamine] was tested. Which IC50 did it give?
Its IC50 is 500 to 5000 nM.

With `Cc1cnc(Nc2cnc(N3CCN(C)CC3)c(C(F)(F)F)c2)nc1Nc1ccc2oc(=O)[nH]c2c1` [II-39, N4-(benzo[d]oxazolin-2(3H)-on-5-yl)-N2-[3-trifluoromethyl-2-(4-methylpiperazin-1-yl)pyridin-5-yl]-5-methylpyrimidine-2,4-diamine] as the compound, how does the IC50 read?
Its IC50 is < 500 nM.

With `Cc1cnc(Nc2cnc(N3C[C@@H]4C[C@H]3CN4C)c(F)c2)nc1Nc1ccc2oc(=O)[nH]c2c1` [II-40, N4-(benzoxazolin-2-on-5-yl)-N2-[3-fluoro-2-((1S,4S)-5-methyl-2,5-diazabicyclo[2.2.1]heptan-2-yl)pyridin-5-yl]-5-methylpyrimidine-2,4-diamine] as the compound, how does the IC50 read?
Its IC50 is < 500 nM.

`Cc1cnc(Nc2ccc(N3CCN(C(=O)OC(C)(C)C)[C@@H](C)C3)nc2)nc1Nc1ccc2oc(=O)[nH]c2c1` [II-41, (S)-2-Methyl-4-{5-[5-methyl-4-(2-oxo-2,3-dihydro-benzooxazol-5-ylamino)-pyrimidin-2-ylamino]-pyridin-2-yl}-piperazine-1-carboxylic acid tert-butyl ester] was tested. Which IC50 did it give?
Its IC50 is < 500 nM.

How did the IC50 turn out when `Cc1cnc(Nc2cccnc2)nc1Nc1ccc2oc(=O)[nH]c2c1` [II-42, 5-[5-Methyl-2-(pyridin-3-ylamino)-pyrimidin-4-ylamino]-3H-benzooxazol-2-one] was run?
Its IC50 is 500 to 5000 nM.

Which IC50 does the source give for `Cc1cnc(Nc2ccc(S(C)(=O)=O)nc2)nc1Nc1ccc2oc(=O)[nH]c2c1` [II-43, 5-[2-(6-Methanesulfonyl-pyridin-3-ylamino)-5-methyl-pyrimidin-4-ylamino]-3H-benzooxazol-2-one] here?
Its IC50 is < 500 nM.

Which IC50 does the source give for `Cc1cnc(Nc2ccc(N3CCN[C@@H](C)C3)nc2)nc1Nc1ccc2oc(=O)[nH]c2c1` [II-44, 5-{5-Methyl-2-[6-((S)-3-methyl-piperazin-1-yl)-pyridin-3-ylamino]-pyrimidin-4-ylamino}-3H-benzooxazol-2-one] here?
Its IC50 is < 500 nM.

For `Cc1cnc(Nc2ccc(C(=O)N3CCNCC3)nc2)nc1Nc1ccc2oc(=O)[nH]c2c1` [II-45, 5-{5-Methyl-2-[6-(piperazine-1-carbonyl)-pyridin-3-ylamino]-pyrimidin-4-ylamino}-3H-benzooxazol-2-one], which IC50 is on record?
Its IC50 is < 500 nM.

`Cc1cnc(Nc2ccc(C(=O)N3CCN(CC4CC4)CC3)nc2)nc1Nc1ccc2oc(=O)[nH]c2c1` [II-46, 5-{2-[6-(4-Cyclopropylmethyl-piperazine-1-carbonyl)-pyridin-3-ylamino]-5-methyl-pyrimidin-4-ylamino}-3H-benzooxazol-2-one] was tested. Which IC50 did it give?
The IC50 was 500 to 5000 nM.

Which IC50 does the source give for `Cc1cnc(Nc2ccc(C(=O)N3CCN(CC(C)C)CC3)nc2)nc1Nc1ccc2oc(=O)[nH]c2c1` [II-47, 5-{2-[6-(4-Isobutyl-piperazine-1-carbonyl)-pyridin-3-ylamino]-5-methyl-pyrimidin-4-ylamino}-3H-benzooxazol-2-one] here?
Its IC50 is < 500 nM.

Which IC50 does the source give for `Cc1cnc(Nc2cnc(N3CC4CN(C(=O)OC(C)(C)C)CC4C3)c(F)c2)nc1Nc1ccc2oc(=O)[nH]c2c1` (stereo not drawn) [II-48, 5-{3-Fluoro-5-[5-methyl-4-(2-oxo-2,3-dihydro-benzooxazol-5-ylamino)-pyrimidin-2-ylamino]-pyridin-2-yl}-hexahydro-pyrrolo[3,4-c]pyrrole-2-carboxylic acid tert-butyl ester] here?
Its IC50 is < 500 nM.

Which IC50 does the source give for `Cc1cnc(Nc2cnc(N3CC4CC3CN4C(=O)OC(C)(C)C)c(F)c2)nc1Nc1ccc2oc(=O)[nH]c2c1` (stereo not drawn) [II-49, 5-{3-Fluoro-5-[5-methyl-4-(2-oxo-2,3-dihydro-benzooxazol-5-ylamino)-pyrimidin-2-ylamino]-pyridin-2-yl}-2,5-diaza-bicyclo[2.2.1]heptane-2-carboxylic acid tert-butyl ester] here?
The IC50 was < 500 nM.

For `Cc1cnc(Nc2cnc(N3CC4CNCC4C3)c(F)c2)nc1Nc1ccc2oc(=O)[nH]c2c1` (stereo not drawn) [II-50, 5-{2-[5-Fluoro-6-(hexahydro-pyrrolo[3,4-c]pyrrol-2-yl)-pyridin-3-ylamino]-5-methyl-pyrimidin-4-ylamino}-3H-benzooxazol-2-one], which IC50 is on record?
Its IC50 is < 500 nM.

How did the IC50 turn out when `Cc1cnc(Nc2cnc(N3CC4CC3CN4)c(F)c2)nc1Nc1ccc2oc(=O)[nH]c2c1` (stereo not drawn) [II-51, 5-{2-[6-(2,5-Diaza-bicyclo[2.2.1]hept-2-yl)-5-fluoro-pyridin-3-ylamino]-5-methyl-pyrimidin-4-ylamino}-3H-benzooxazol-2-one] was run?
Its IC50 is < 500 nM.

With `Cc1cnc(Nc2cnc(N3CC4CN(CC5CC5)CC4C3)c(F)c2)nc1Nc1ccc2oc(=O)[nH]c2c1` (stereo not drawn) [II-52, 5-{2-[6-(5-Cyclopropylmethyl-hexahydro-pyrrolo[3,4-c]pyrrol-2-yl)-5-fluoro-pyridin-3-ylamino]-5-methyl-pyrimidin-4-ylamino}-3H-benzooxazol-2-one] as the compound, how does the IC50 read?
Its IC50 is < 500 nM.

How did the IC50 turn out when `Cc1cnc(Nc2cnc(N3CC4CN(C(=O)C5CC5)CC4C3)c(F)c2)nc1Nc1ccc2oc(=O)[nH]c2c1` (stereo not drawn) [II-53, 5-{2-[6-(5-Cyclopropanecarbonyl-hexahydro-pyrrolo[3,4-c]pyrrol-2-yl)-5-fluoro-pyridin-3-ylamino]-5-methyl-pyrimidin-4-ylamino}-3H-benzooxazol-2-one] was run?
The IC50 was < 500 nM.

`Cc1cnc(Nc2cnc(N3CC4CC3CN4CC3CC3)c(F)c2)nc1Nc1ccc2oc(=O)[nH]c2c1` (stereo not drawn) [II-54, 5-{2-[6-(5-Cyclopropylmethyl-2,5-diaza-bicyclo[2.2.1]hept-2-yl)-5-fluoro-pyridin-3-ylamino]-5-methyl-pyrimidin-4-ylamino}-3H-benzooxazol-2-one] was tested. Which IC50 did it give?
The IC50 was < 500 nM.

For `Cc1cnc(Nc2ccc(N3CCN(C)[C@H](C)C3)nc2)nc1Nc1ccc2oc(=O)[nH]c2c1` [II-55, (R)-5-(2-(6-(3,4-dimethylpiperazin-1-yl)pyridin-3-ylamino)-5-methylpyrimidin-4-ylamino)benzo[d]oxazol-2(3H)-one], which IC50 is on record?
The IC50 was < 500 nM.

How did the IC50 turn out when `Cc1cnc(Nc2ccc(N3CCN(CC4CC4)[C@H](C)C3)nc2)nc1Nc1ccc2oc(=O)[nH]c2c1` [II-56, (R)-5-(2-(6-(4-(cyclopropylmethyl)-3-methylpiperazin-1-yl)pyridin-3-ylamino)-5-methylpyrimidin-4-ylamino)benzo[d]oxazol-2(3H)-one] was run?
The IC50 was < 500 nM.

How did the IC50 turn out when `Cc1cnc(Nc2ccc(N3CCN(C(=O)C(F)(F)F)[C@H](C)C3)nc2)nc1Nc1ccc2oc(=O)[nH]c2c1` [II-57, (R)-5-(5-methyl-2-(6-(3-methyl-4-(2,2,2-trifluoroacetyl)piperazin-1-yl)pyridin-3-ylamino)pyrimidin-4-ylamino)benzo[d]oxazol-2(3H)-one] was run?
Its IC50 is < 500 nM.

With `Cc1cnc(Nc2ccc(N3CCC(F)(F)CC3)nc2)nc1Nc1ccc2oc(=O)[nH]c2c1` [II-59, 5-(2-(6-(4,4-difluoropiperidin-1-yl)pyridin-3-ylamino)-5-methylpyrimidin-4-ylamino)benzo[d]oxazol-2(3H)-one] as the compound, how does the IC50 read?
Its IC50 is < 500 nM.

Which IC50 does the source give for `Cc1cnc(Nc2ccc(N3CCC(C)(C)CC3)nc2)nc1Nc1ccc2oc(=O)[nH]c2c1` [II-60, 5-(2-(6-(4,4-dimethylpiperidin-1-yl)pyridin-3-ylamino)-5-methylpyrimidin-4-ylamino)benzo[d]oxazol-2(3H)-one] here?
The IC50 was < 500 nM.

`Cc1cnc(Nc2cnc(N3CC4CCC(C3)N4)c(C)c2)nc1Nc1ccc2oc(=O)[nH]c2c1` [II-61, 5-(2-(6-(3,8-diaza-bicyclo[3.2.1]octan-3-yl)-5-methylpyridin-3-ylamino)-5-methylpyrimidin-4-ylamino)benzo[d]oxazol-2(3H)-one] was tested. Which IC50 did it give?
The IC50 was < 500 nM.

For `Cc1cnc(Nc2cnc(N3CC4CCC(C3)N4C(=O)C(F)(F)F)c(C)c2)nc1Nc1ccc2oc(=O)[nH]c2c1` [II-63, 5-(5-methyl-2-(5-methyl-6-(8-(2,2,2-trifluoroacetyl)-3,8-diaza-bicyclo[3.2.1]octan-3-yl)pyridin-3-ylamino)pyrimidin-4-ylamino)benzo[d]oxazol-2(3H)-one], which IC50 is on record?
The IC50 was < 500 nM.

With `Cc1cnc(Nc2cnc(N3CC4CCC(C3)N4C)c(C)c2)nc1Nc1ccc2oc(=O)[nH]c2c1` [II-64, 5-(5-methyl-2-(5-methyl-6-(8-methyl-3,8-diaza-bicyclo[3.2.1]octan-3-yl)pyridin-3-ylamino)pyrimidin-4-ylamino)benzo[d]oxazol-2(3H)-one] as the compound, how does the IC50 read?
Its IC50 is < 500 nM.

For `Cc1cnc(Nc2cnc(C3CC4CCC(C3)N4C(=O)OC(C)(C)C)c(C)c2)nc1Nc1ccc2oc(=O)[nH]c2c1` (stereo not drawn) [II-65, tert-butyl 3-(3-methyl-5-(5-methyl-4-(2-oxo-2,3-dihydrobenzo[d]oxazol-5-ylamino)pyrimidin-2-ylamino)pyridin-2-yl)-8-azabicyclo[3.2.1]octane-8-carboxylate], which IC50 is on record?
Its IC50 is < 500 nM.

same assay, conditions: tested under conditions described in Example 3 (IL-2 stimulated human primary T-cell proliferation); read-out: ability to inhibit JAK3 activity, IC50 range (Table V)

How did the IC50 turn out when `Cc1cnc(Nc2ccc(NC3CCNCC3)nc2)nc1Nc1ccc2oc(=O)[nH]c2c1` [II-36, N4-(benzo[d]oxazol-2(3H)-on-5-yl)-N2-[2-(1H-piperidin-4-yl)aminopyridin-5-yl]-5-methylpyrimidine-2,4-diamine] was run?
Its IC50 is < 500 nM.

`CCOP(=O)(OCC)N1CCN(c2ccc(Nc3ncc(C)c(Nc4ccc5oc(=O)[nH]c5c4)n3)cn2)C[C@H]1C` [II-58, (R)-diethyl 2-methyl-4-(5-(5-methyl-4-(2-oxo-2,3-dihydrobenzo[d]oxazol-5-ylamino)pyrimidin-2-ylamino)pyridin-2-yl)piperazin-1-ylphosphonate] was tested. Which IC50 did it give?
The IC50 was < 500 nM.
